Assays:
[1] = tested on: isolated rat adipocytes; experiment: Antagonism of fragment 116-167 to the leptin effect: insulin-stimulated lipogenesis; type: cell-based
Experimental: Adipocytes were prepared from the epididymal fat tissue of male Wistar rats (140-160 g, Hoechst AG breeding station, Kastengrund) by means of digesting with collagenase (Rodbell, 1964, J. Biol. Chem. 239, 375-380), washed twice with KRH (25 mM Hepes free acid, 25 mM Hepes sodium salt, 80 mM NaCl, 1 mM MgSO4, 2 mM CaCl2, 6 mM KCl, 1 mM sodium pyruvate, 0.5% BSA) and once with DMEM (Dulbecco's minimal essential medium), supplemented with 5.5 mM glucose, 20 mM Hepes (pH 7.4), 2% fetal calf serum, 1% BSA, 50 U of penicillin/ml, […], by means of flotation (800×g, 1 min, in small plastic tubes), and finally diluted to a volume of 20 ml of DMEM/g wet weight of the fat tissue (cell titer: approximately 2.5×10^5 cells/ml). […] In order to determine the capacity of the adipocytes to be stimulated by insulin, and their sensitivity to insulin, following the primary culture, the washed adipocytes were incubated at 37° C. for 20 min in the absence or presence of human insulin (0.02-50 nM final concentration), and glucose transport or lipogenesis was then measured. Lipogenesis was measured as the incorporation of D-glucose into toluene-extractable lipids (Moody et al., 1974, Horm. Metab. Res. 6, 12-16). […] The radioactivity of the lipids in the toluene phase was corrected for the radioactivity of an incubation mixture which contained the same quantity of [^3H]glucose but no cells. […]

[2] = tested on: isolated rat adipocytes; experiment: Antagonism of fragment 116-167 to the leptin effect: insulin-stimulated glucose transport; type: cell-based
Experimental: Adipocytes were prepared from the epididymal fat tissue of male Wistar rats (140-160 g, Hoechst AG breeding station, Kastengrund) by means of digesting with collagenase (Rodbell, 1964, J. Biol. Chem. 239, 375-380), washed twice with KRH (25 mM Hepes free acid, 25 mM Hepes sodium salt, 80 mM NaCl, 1 mM MgSO4, 2 mM CaCl2, 6 mM KCl, 1 mM sodium pyruvate, 0.5% BSA) and once with DMEM (Dulbecco's minimal essential medium), supplemented with 5.5 mM glucose, 20 mM Hepes (pH 7.4), 2% fetal calf serum, 1% BSA, 50 U of penicillin/ml, […], by means of flotation (800×g, 1 min, in small plastic tubes), and finally diluted to a volume of 20 ml of DMEM/g wet weight of the fat tissue (cell titer: approximately 2.5×10^5 cells/ml). […]
Glucose transport was measured as the specific uptake of the non-metabolizable glucose analog 2-deoxyglucose (Muller and Wied, 1993, Diabetes 42, 1852-1867). […] After 10 ml of scintillation fluid (water-based) had been added, the radioactivity associated with the cells was measured. […]
Isolated rat adipocytes were incubated for 17.5 h in primary culture in the presence or absence of leptin (10 nM) and increasing concentrations of leptin fragment 116-167. […] The stimulation factor for insulin was calculated as the ratio between the insulin-stimulated activity and the basal activity. […]

[3] = Insulin only, 5 nM (no leptin, no fragment)
[4] = Leptin: 10 nM 17.5 h, no fragment, Insulin: 5 nM

Substance	Lipogenesis, stimulation factor for insulin (stimulated/basal) [1, 3]	Glucose Transport, stimulation factor for insulin (stimulated/basal) [2, 3]	Lipogenesis, stimulation factor for insulin (stimulated/basal) [1, 4]	Glucose Transport, stimulation factor for insulin (stimulated/basal) [2, 4]
Insulin: human insulin used to stimulate adipocytes [reference compound]	3.9	13.4		
Leptin			1.5	3.55
